In patent US20210254138A1, “SIALIC ACID TRANSPORTER PROTEINS AS BIOMARKERS AND DRUG TARGETS” (Quadram Institute Bioscience, priority 2018, published 2021):
“Also recorded” adds a separate entry of the source.

What was measured:
[1] = system: RgSBP (RUMGNA_02698, solute binding protein); assay: Fluorescence spectroscopy of ligand binding to RgSBP; parameters: species or system R. gnavus ATCC 29149; details: for change in fluorescence emission at 350 nm upon sequential additions of ligand: sequential additions of 10 μM ligand
Experimental: Ligand binding to RgSBP was investigated by measuring changes in the intrinsic protein fluorescence upon addition of 2,7-anhydro-Neu5Ac or Neu5Ac as potential ligands. (Andrew Bell with help from student in Gavin Thomas's Group,York). Due to the presence of […] in RgSBP, fluorescence changes were measured by exciting at 297 nm. Under these conditions the protein has a maximal emission at 331 nm. […] 2,7-Anhydro-Neu5Ac caused a 16% quench in the fluorescence of the protein at ligand saturation (FIG. 3A).
The binding of RgSBP to 2,7-anhydro-Neu5Ac or Neu5Ac was further investigated by measuring changes in fluorescence emission at 350 nm when RgSBP was excited at 297 nm upon sequential additions of 10 μM ligands.
All protein fluorescence experiments used a FluoroMax 3 fluorescence spectrometer with connecting water bath at 37° C. Because of the presence of 15 […] residues, the protein was excited at 297 nm with slit widths of 5 nm. […] Cumulative fluorescence changes from titration of the protein with ligand were plotted in GraphPad and fitted to a single rectangular hyperbola. The Kd values reported were averaged from three separate ligand titration experiments.
To determine the specificity of the predicted transporter, the gene encoding the predicted SBP was amplified by PCR from the R. gnavus ATCC 29149 genome, cloned into the pHISTEV expression vector, heterologously expressed in E. coli and the His6-tag recombinant protein purified by immobilised metal ion affinity chromatography (IMAC). Ligand binding to RgSBP was investigated by measuring changes in the intrinsic protein fluorescence upon addition of 2,7-anhydro-Neu5Ac or Neu5Ac as potential ligands. Due to the presence of 7 tryptophan residues in RgSBP, fluorescence changes were measured by exciting at 297 nm. Under these conditions the protein has a maximal emission at 331 nm. […] To confirm the novel specificity of 2,7-anhydro-Neu5Ac over Neu5Ac we followed sequential changes in fluorescence at 350 nm following additions of 10 μM of the two ligands. […] Conversely, when 2,7-anhydro-Neu5Ac is added first the quench is observed and additions of 10 μM Neu5Ac caused no further reduction or reverse in the intensity (FIG. 3d), indicating Neu5Ac is unable to displace 2,7-anhydro-Neu5Ac, further supporting the specificity of the interaction between RgSBP and 2,7-anhydro-Neu5Ac.

[2] = molecular target: RgSBP (RUMGNA_02698, solute binding protein); assay: Isothermal titration calorimetry (ITC) of RgSBP binding; parameters: species or system R. gnavus ATCC 29149; details: 50 mM Tris-HCl pH 7.5; single-binding site model; triplicate
Experimental: Isothermal titration calorimetry (ITC) experiments were performed using the PEAQ-ITC system (Malvern, Malvern, UK) with a cell volume of 200 μl. Prior to titration, protein samples were exhaustively dialysed into 50 mM Tris-HCl pH 7.5. The ligand was dissolved in the dialysis buffer. The cell protein concentration was 100 μM and the syringe ligand concentration was 2 mM. Controls with titrant (sugar) injected into the buffer only were subtracted from the data. The analysis was performed using the Malvern software, using a single-binding site model. Experiments were carried out in triplicate.

[3] = molecular target: RgNanA (RUMGNA_02692, sialic acid aldolase) (Mediterraneibacter gnavus, UniProt A7B555); assay: Sialic acid aldolase activity assay coupled to lactate dehydrogenase, RgNanA; details: 10 mM sialic acid, 37° C., pH 7.0, A340 nm
Experimental: Aldolase cleavage was measured by monitoring the decrease in absorbance at 340 nm (A340 nm) as NADH is converted to NAD by lactate dehydrogenase in a coupled reaction where pyruvate is released from sialic acid by the aldolase. Reactions were performed in a 100 μl volume with final concentrations of 150 μM NADH (Sigma, St Louis, USA), 0.5 U LDH (Sigma, St Louis, USA), 10 mM sialic acid (Neu5Ac or 2,7-anhydro-Neu5Ac) and 1.5 μg purified RgNanA or EcNanA (E. coli aldolase CAS: 9027-60-5, Carbosynth, UK) in 50 mM Na-phosphate buffer (pH 7.0). The reactions were performed at 37° C. and monitored using FLUOstar OPTIMA (BMG LABTECH). For kinetics experiments, the sialic acid concentration was varied at 20, 10, 5, 4, 2, 1, 0.4, 0.2, 0.1 mM and the initial rate of reaction determined for each concentration in triplicate before analysis was performed by fitting the data to a Michaelis-Menten using Graph Pad Prism (V 5.03).
The substrate specificity of RgNanA was determined using a coupled activity assay where pyruvate released during the conversion of sialic acid to ManNAc is converted to lactate by a lactate dehydrogenase and the subsequent loss of absorbance at 340 nm measured as NADH is converted to NAD^+. A commercially available E. coli sialic acid aldolase (EcNanA) was included as a control and enzymes were tested for activity against 2,7-anhydro-Neu5Ac and Neu5Ac. […] The kinetic parameters of RgNanA were determined by calculating the initial rate of reaction with increasing Neu5Ac concentrations. A Michaelis-Menten curve was fitted to the data and kinetic parameters determined (FIG. 7b).

[4] = system: R. gnavus ATCC 29149 wild-type; assay: Growth on sole carbon source, wild-type strain; format: cell-based; details: 11.1 mM in YCFA, anaerobic
Experimental: R. gnavus ATCC 29149 was routinely grown in an anaerobic cabinet (Don Whitley, Shipley, UK) in BHI-YH as previously described (Crost et al., 2013). Growth on single carbon sources utilized anaerobic basal YCFA medium (Duncan et al., 2002) supplemented with 11.1 mM of specific mono- or oligosaccharides (2,7-anhydro-Neu5Ac, 3'Sialyllactose (3'SL) or glucose). The bacteria were grown to late exponential phase for RNA extraction, the culture was performed in 14 ml tubes. Growth was determined spectrophotometrically by monitoring changes in optical density at […] compared to the same medium without bacterium (ΔOD595 nm) hourly for 10 hours.
(§1) The ability of the mutants to utilise sialic acids and sialoconjugates was assessed by supplementing YCFA with 11.1 mM of 2,7-anhydro-Neu5Ac, 3'SL, glucose or Neu5Ac in triplicate 200 μl cultures in 96-well microtiter plates. The OD595 nm was measured hourly for 10 h in an infinite F50 plate reader (Tecan, UK) housed within an anaerobic cabinet connected to Magellan V7.0 software.

[5] = system: R. gnavus ATCC 29149 nan deletion mutants; assay: Growth on sole carbon source, nan deletion mutants; format: cell-based; details: 11.1 mM in YCFA, anaerobic
Text: R. gnavus mutants were generated using the ClosTron methodology (Heap et al., 2010), which inserts an erythromycin resistance cassette into the gene of interest. Target sites were identified using the Pertuka method (Perutka et al., 2004). The re-targeted introns were synthesised and ligated into the pMTL007C-E2 vector by ATUM (MenloPark, USA). The plasmids were then transformed into E. coli CA434 using the heat-shock protocol, and the recombinant clones selected for chloramphenicol resistance. Recombinant E. coli cells were grown overnight in 10 ml LB, 1 ml of the overnight culture was pelleted and washed with PBS. The E. coli cell pellet was resuspended in 200 μl of an R. gnavus overnight culture and the cell suspension spotted onto a non-selective BHI-YH plate. […]
as §1

Sequence of RgNanA (RUMGNA_02692, sialic acid aldolase) (A7B555 whole entry): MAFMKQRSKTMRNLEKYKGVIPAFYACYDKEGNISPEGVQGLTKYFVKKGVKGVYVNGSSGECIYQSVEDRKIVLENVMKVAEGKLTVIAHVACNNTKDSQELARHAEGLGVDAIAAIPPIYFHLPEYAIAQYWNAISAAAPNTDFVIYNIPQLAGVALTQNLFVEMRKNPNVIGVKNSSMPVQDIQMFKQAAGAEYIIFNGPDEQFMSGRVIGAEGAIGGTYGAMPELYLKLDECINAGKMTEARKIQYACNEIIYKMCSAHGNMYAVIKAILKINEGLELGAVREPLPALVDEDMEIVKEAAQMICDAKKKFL

Compound | change in the fluorescence emission spectra of RgSBP ([1]; excited at 297 nm, ligand at 10 μM, 20 μM or 70 μM) | change in fluorescence emission at 350 nm upon sequential additions of ligand ([1]; excited at 297 nm) | Kd (ITC) [2] | aldolase activity against substrate [3] | quench in the fluorescence of the protein ([1]; RgSBP excited at 297 nm, 10 μM or 20 μM ligand, ligand saturation) [%] | Kd ([1]; titration of 0.5 μM RgSBP, triplicate, hyperbolic fit) [nM] | Kd [2] [nM] | utilisation as a sole carbon source (growth) [4] | growth on substrate as sole carbon source [5]
CC(=O)N[C@H]1[C@H]([C@H](O)[C@H](O)CO)OC(O)(C(=O)O)C[C@@H]1O (some centres unmarked) [Neu5Ac, N-acetylneuraminic acid] | did not lead to any change in the spectra | no change in fluorescence is observed; also recorded: no change in intensity was observed | No binding was observed; also recorded: does not bind | showed activity | – | – | – | – | –
CC(=O)N[C@H]1C2OC(C(=O)O)(C[C@@H]1O)O[C@@H]2[C@H](O)CO (some centres unmarked) [2,7-anhydro-Neu5Ac] | – | a quench is observed; also recorded: large decrease in intensity | – | neither enzyme showed activity | ~16 | 1350 | 2420 ± 270 | able to utilise | no growth was detected
